The subject of this assay is MV-4-11 cells. The assay can be described thus: Gene expression microarray analysis (Affymetrix PrimeView) and GSEA. Further details: RFU PODN (11730768_x_at) / Fold change /veh PODN (11730768_x_at) / RFU LINC00158 (11744669_a_at) / Fold change /veh LINC00158 (11744669_a_at) / RFU DUSP10 (11751237_a_at) / Fold change /veh DUSP10 (11751237_a_at) / RFU ID3 (11757404_x_at) / Fold change /veh ID3 (11757404_x_at) / RFU PLEKHG5 (11737974_s_at) / Fold change /veh PLEKHG5 (11737974_s_at) / RFU LRRC4B (11730491_at) / Fold change /veh LRRC4B (11730491_at) / RFU GIMAP4 (11747438_a_at) / Fold change /veh GIMAP4 (11747438_a_at) / RFU KRT8 (11758183_x_at) / Fold change /veh KRT8 (11758183_x_at) / RFU CNN1 (11734310_a_at) / Fold change /veh CNN1 (11734310_a_at) / RFU VPS37D (11726825_at) / Fold change /veh VPS37D (11726825_at) / RFU C10orf10 (11716522_x_at) / Fold change /veh C10orf10 (11716522_x_at) / RFU KIR2DL2 /// KIR2DL4 /// KIR2DL5A /// KIR2DL5B /// KIR2DS1 /// KIR2DS2 /// KIR2DS3 /// KIR2DS4 /// KIR3DL3 /// KIR3DL3 /// KIR3DS1 (11738374_at) / Fold change /veh KIR2DL2 /// KIR2DL4 /// KIR2DL5A /// KIR2DL5B /// KIR2DS1 /// KIR2DS2 /// KIR2DS3 /// KIR2DS4 /// KIR3DL3 /// KIR3DL3 /// KIR3DS1 (11738374_at) / RFU C1QL1 (11718748_at) / Fold change /veh C1QL1 (11718748_at) / RFU TMPRSS4 (11747572_a_at) / Fold change /veh TMPRSS4 (11747572_a_at) / RFU HAMP (11756126_x_at) / Fold change /veh HAMP (11756126_x_at) / RFU RNFT2 (11725882_a_at) / Fold change /veh RNFT2 (11725882_a_at) / RFU NR4A2 (11747474_a_at) / Fold change /veh NR4A2 (11747474_a_at) / RFU ABCC12 (11746883_a_at) / Fold change /veh ABCC12 (11746883_a_at) / RFU TMEM136 (11760407_x_at) / Fold change /veh TMEM136 (11760407_x_at) / RFU CLDN22 /// WWC2 (11732394_at) / Fold change /veh CLDN22 /// WWC2 (11732394_at) / RFU HLA-DPB1 (11760878_x_at) / Fold change /veh HLA-DPB1 (11760878_x_at) / RFU SPINT1 (11716480_a_at) / Fold change /veh SPINT1 (11716480_a_at) / RFU GAP43 (11754022_s_at) / Fold change /veh GAP43 (11754022_s_at) / RFU A4GNT (11735810_at) / Fold change /veh A4GNT (11735810_at) / RFU PRB3 (11715151_x_at) / Fold change /veh PRB3 (11715151_x_at) / RFU TUBB4B (11761932_at) / Fold change /veh TUBB4B (11761932_at) / RFU CAPN14 (11732068_a_at) / Fold change /veh CAPN14 (11732068_a_at) / RFU TMCC2 (11721928_a_at) / Fold change /veh TMCC2 (11721928_a_at) / RFU IRGQ (11745062_a_at) / Fold change /veh IRGQ (11745062_a_at) / RFU FAM174B (11720279_a_at) / Fold change /veh FAM174B (11720279_a_at) / RFU TMPRSS4 (11748680_a_at) / Fold change /veh TMPRSS4 (11748680_a_at) / RFU FAM212B (11763350_a_at) / Fold change /veh FAM212B (11763350_a_at) / RFU PLEKHG5 (11743358_a_at) / Fold change /veh PLEKHG5 (11743358_a_at) / RFU ZSCAN30 (11745921_a_at) / Fold change /veh ZSCAN30 (11745921_a_at) / RFU CMKLR1 (11741424_a_at) / Fold change /veh CMKLR1 (11741424_a_at) / RFU LOC101060620 /// MAPK8IP1 (11723275_at) / Fold change /veh LOC101060620 /// MAPK8IP1 (11723275_at) / RFU SPTSSB (11747773_x_at) / Fold change /veh SPTSSB (11747773_x_at) / RFU PRSS12 (11739890_at) / Fold change /veh PRSS12 (11739890_at) / RFU BIN1 (11741810_x_at) / Fold change /veh BIN1 (11741810_x_at) / RFU WNT11 (11732464_a_at) / Fold change /veh WNT11 (11732464_a_at) / RFU C10orf10 (11716521_a_at) / Fold change /veh C10orf10 (11716521_a_at) / RFU C5orf56 (11738089_at) / Fold change /veh C5orf56 (11738089_at) / RFU CYB561 (11721691_x_at) / Fold change /veh CYB561 (11721691_x_at) / RFU ANKRD19P (11752326_a_at) / Fold change /veh ANKRD19P (11752326_a_at) / RFU OR2T12 /// OR2T33 /// OR2T8 (11738714_s_at) / Fold change /veh OR2T12 /// OR2T33 /// OR2T8 (11738714_s_at) / RFU VCAN (11748164_a_at) / Fold change /veh VCAN (11748164_a_at) / RFU JSRP1 (11732532_at) / Fold change /veh JSRP1 (11732532_at) / RFU KRTAP10-11 (11738290_x_at) / Fold change /veh KRTAP10-11 (11738290_x_at) / RFU MYO3A (11730013_a_at) / Fold change /veh MYO3A (11730013_a_at) / RFU EBF3 (11725865_a_at) / Fold change /veh EBF3 (11725865_a_at) / RFU CAMK2N1 (11719241_x_at) / Fold change /veh CAMK2N1 (11719241_x_at) / RFU C5orf56 (11738088_a_at) / Fold change /veh C5orf56 (11738088_a_at) / RFU OLFML3 (11715873_a_at) / Fold change /veh OLFML3 (11715873_a_at) / RFU LOC100653217 /// NTM (11731650_a_at) / Fold change /veh LOC100653217 /// NTM (11731650_a_at) / RFU MAPK11 (11762145_a_at) / Fold change /veh MAPK11 (11762145_a_at) / RFU FIZ1 (11724087_x_at) / Fold change /veh FIZ1 (11724087_x_at) / RFU OASL (11726364_x_at) / Fold change /veh OASL (11726364_x_at) / RFU SOX15 (11748057_x_at) / Fold change /veh SOX15 (11748057_x_at) / RFU CD79A (11719716_a_at) / Fold change /veh CD79A (11719716_a_at) / RFU HIST1H1D (11736915_at) / Fold change /veh HIST1H1D (11736915_at) / RFU CASKIN2 (11723855_a_at) / Fold change /veh CASKIN2 (11723855_a_at) / RFU LOC730098 (11760151_x_at) / Fold change /veh LOC730098 (11760151_x_at) / RFU OR4N2 (11742367_at) / Fold change /veh OR4N2 (11742367_at) / RFU PRRT2 (11749266_a_at) / Fold change /veh PRRT2 (11749266_a_at) / RFU SNX32 (11753110_a_at) / Fold change /veh SNX32 (11753110_a_at) / RFU CDHR5 (11726645_a_at) / Fold change /veh CDHR5 (11726645_a_at) / RFU RCAN1 (11760418_a_at) / Fold change /veh RCAN1 (11760418_a_at) / RFU FAM167A (11723789_a_at) / Fold change /veh FAM167A (11723789_a_at) / RFU FAM26E (11764081_at) / Fold change /veh FAM26E (11764081_at) / RFU ISYNA1 (11749810_s_at) / Fold change /veh ISYNA1 (11749810_s_at) / RFU ACY1 (11761880_at) / Fold change /veh ACY1 (11761880_at) / RFU 11764098_at / Fold change /veh 11764098_at / RFU SAMD14 (11745864_x_at) / Fold change /veh SAMD14 (11745864_x_at) / RFU NPB (11741838_a_at) / Fold change /veh NPB (11741838_a_at) / RFU TMPRSS6 (11731388_a_at) / Fold change /veh TMPRSS6 (11731388_a_at) / RFU KRTAP10-2 (11738614_at) / Fold change /veh KRTAP10-2 (11738614_at) / RFU ARHGAP8 /// PRR5-ARHGAP8 (11727945_x_at) / Fold change /veh ARHGAP8 /// PRR5-ARHGAP8 (11727945_x_at) / RFU KRTAP5-7 /// NADSYN1 (11734609_at) / Fold change /veh KRTAP5-7 /// NADSYN1 (11734609_at) / RFU RASL12 (11751679_a_at) / Fold change /veh RASL12 (11751679_a_at) / RFU CDKN2B (11736163_a_at) / Fold change /veh CDKN2B (11736163_a_at) / RFU PRF1 (11729649_at) / Fold change /veh PRF1 (11729649_at) / RFU, ZNF638 /// ZNF638-IT1 / Fold change vs veh, ZNF638 /// ZNF638-IT1 / RFU, PANK3 / Fold change vs veh, PANK3 / RFU, SH3YL1 / Fold change vs veh, SH3YL1 / RFU, ZEB2 / Fold change vs veh, ZEB2 / RFU, NRIP1 / Fold change vs veh, NRIP1 / RFU, PTTG1IP / Fold change vs veh, PTTG1IP / RFU, CAPN2 / Fold change vs veh, CAPN2 / RFU, MED14 / Fold change vs veh, MED14 / RFU, SNORA58 / Fold change vs veh, SNORA58 / RFU, C1orf63 / Fold change vs veh, C1orf63 / RFU, LRRFIP1 / Fold change vs veh, LRRFIP1 / RFU, NDUFAF7 / Fold change vs veh, NDUFAF7 / RFU, SLC12A2 / Fold change vs veh, SLC12A2 / RFU, IBTK / Fold change vs veh, IBTK / RFU, ESF1 / Fold change vs veh, ESF1 / Fold change vs veh, TMEM50B / RFU, TAOK1 / Fold change vs veh, TAOK1 / RFU, ACBD3 / Fold change vs veh, ACBD3 / RFU, TMA16 / Fold change vs veh, TMA16 / RFU, RWDD3 / Fold change vs veh, RWDD3 / RFU, BCAT1 / Fold change vs veh, BCAT1 / RFU, EDEM3 / Fold change vs veh, EDEM3 / RFU, TMEM33 / Fold change vs veh, TMEM33 / RFU, WDR75 / Fold change vs veh, WDR75 / RFU, AHCTF1 / Fold change vs veh, AHCTF1 / RFU, TFRC / Fold change vs veh, TFRC / RFU, ZDHHC17 / Fold change vs veh, ZDHHC17 / RFU, NOM1 / Fold change vs veh, NOM1 / RFU, ARL8B / Fold change vs veh, ARL8B / RFU, ZBTB11 / Fold change vs veh, ZBTB11 / RFU, TAMM41 / Fold change vs veh, TAMM41 / RFU, KIAA1704 /// LOC100996395 / Fold change vs veh, KIAA1704 /// LOC100996395 / RFU, ING1 / Fold change vs veh, ING1 / RFU, TRMT61B / Fold change vs veh, TRMT61B / RFU, FUBP3 / Fold change vs veh, FUBP3 / RFU, TP53 / Fold change vs veh, TP53 / RFU, TNKS2 / Fold change vs veh, TNKS2 / RFU, ZFP14 / Fold change vs veh, ZFP14 / RFU, ACTR2 / Fold change vs veh, ACTR2 / RFU, PPP3R1 / Fold change vs veh, PPP3R1 / RFU, PIK3R1 / Fold change vs veh, PIK3R1 / RFU, HNRNPA1 / Fold change vs veh, HNRNPA1 / RFU, RNF170 / Fold change vs veh, RNF170 / RFU, ZNF28 / Fold change vs veh, ZNF28 / RFU, RNGTT / Fold change vs veh, RNGTT / RFU, OGT / Fold change vs veh, OGT / RFU, BRD1 / Fold change vs veh, BRD1 / RFU, MARS / Fold change vs veh, MARS / RFU, ZNF655 / Fold change vs veh, ZNF655 / RFU, FAHD1 / Fold change vs veh, FAHD1 / RFU, BDP1 / Fold change vs veh, BDP1 / RFU, LRRCC1 / Fold change vs veh, LRRCC1 / RFU, ARID1A / Fold change vs veh, ARID1A / RFU, ZNF146 / Fold change vs veh, ZNF146 / RFU, ZNF330 / Fold change vs veh, ZNF330 / RFU, GPN3 / Fold change vs veh, GPN3 / RFU, C9orf123 / Fold change vs veh, C9orf123 / RFU, N4BP2L2 / Fold change vs veh, N4BP2L2 / RFU, ARFIP1 / Fold change vs veh, ARFIP1 / RFU, FAM179B / Fold change vs veh, FAM179B / RFU, BCL10 / Fold change vs veh, BCL10 / RFU, UHRF1BP1L / Fold change vs veh, UHRF1BP1L / RFU, BET1 / Fold change vs veh, BET1 / RFU, CNOT2 / Fold change vs veh, CNOT2 / RFU, ZNF268 / Fold change vs veh, ZNF268 / Fold change vs veh, ZNF507 / RFU, DGCR2 / Fold change vs veh, DGCR2 / RFU, WDSUB1 / Fold change vs veh, WDSUB1 / Fold change vs veh, HSP90B1 /// MIR3652 / RFU, ADSS / Fold change vs veh, ADSS / RFU, GK / Fold change vs veh, GK / RFU, ZNF148 / Fold change vs veh, ZNF148 / RFU, TAF9 / Fold change vs veh, TAF9 / RFU, SLC1A5 / Fold change vs veh, SLC1A5 / RFU, SLMO2 / Fold change vs veh, SLMO2 / RFU, ABCC4 / Fold change vs veh, ABCC4 / RFU, LOC101060439 /// RAP1B / Fold change vs veh, LOC101060439 /// RAP1B / RFU, RFX7 / Fold change vs veh, RFX7 / RFU, GTPBP10 / Fold change vs veh, GTPBP10 / RFU, CNEP1R1 / Fold change vs veh, CNEP1R1 / RFU, BIVM-ERCC5 /// ERCC5 / Fold change vs veh, BIVM-ERCC5 /// ERCC5 / RFU, ILF3 / Fold change vs veh, ILF3 / RFU 11762660_at / Fold change /veh 11762660_at / RFU VCAN (11757783_s_at) / Fold change /veh VCAN (11757783_s_at) / RFU DDX43 (11728927_at) / Fold change /veh DDX43 (11728927_at) / RFU KRT8 (11758188_x_at) / Fold change /veh KRT8 (11758188_x_at) / RFU NKD1 (11759106_at) / Fold change /veh NKD1 (11759106_at) / RFU SRD5A1 (11742802_a_at) / Fold change /veh SRD5A1 (11742802_a_at) / RFU TPSAB1 /// TPSB2 (11721975_s_at) / Fold change /veh TPSAB1 /// TPSB2 (11721975_s_at) / RFU GSTM3 (11746129_a_at) / Fold change /veh GSTM3 (11746129_a_at) / RFU IL23R (11737362_x_at) / Fold change /veh IL23R (11737362_x_at) / RFU TMEM51 (11727254_a_at) / Fold change /veh TMEM51 (11727254_a_at) / RFU PIWIL2 (11732686_x_at) / Fold change /veh PIWIL2 (11732686_x_at) / RFU ORM1 (11744905_x_at) / Fold change /veh ORM1 (11744905_x_at) / RFU CCDC152 (11743942_at) / Fold change /veh CCDC152 (11743942_at) / RFU ECM1 (11717891_a_at) / Fold change /veh ECM1 (11717891_a_at) / RFU IL23R (11748794_a_at) / Fold change /veh IL23R (11748794_a_at) / RFU TNFAIP8L3 (11732012_x_at) / Fold change /veh TNFAIP8L3 (11732012_x_at) / RFU MBOAT4 (11741988_at) / Fold change /veh MBOAT4 (11741988_at) / RFU 11764193_at / Fold change /veh 11764193_at / RFU TMEM53 (11763286_at) / Fold change /veh TMEM53 (11763286_at) / RFU MAGEB2 (11727129_at) / Fold change /veh MAGEB2 (11727129_at) / RFU TMEM200A (11744735_a_at) / Fold change /veh TMEM200A (11744735_a_at) / RFU CCDC152 (11751479_a_at) / Fold change /veh CCDC152 (11751479_a_at) / RFU FAM211A (11726209_a_at) / Fold change /veh FAM211A (11726209_a_at) / RFU RGS16 (11746705_a_at) / Fold change /veh RGS16 (11746705_a_at) / RFU VCAN (11755009_s_at) / Fold change /veh VCAN (11755009_s_at) / RFU RHOB (11743442_s_at) / Fold change /veh RHOB (11743442_s_at) / RFU RGS16 (11720943_a_at) / Fold change /veh RGS16 (11720943_a_at) / RFU RGS16 (11720944_at) / Fold change /veh RGS16 (11720944_at) / RFU, VPS4B / Fold change vs veh, VPS4B / RFU, CREB1 / Fold change vs veh, CREB1 / RFU, DNAJC13 / Fold change vs veh, DNAJC13 / RFU, GNAQ / Fold change vs veh, GNAQ / RFU, CDK5R1 / Fold change vs veh, CDK5R1 / RFU, ZRANB3 / Fold change vs veh, ZRANB3 / RFU, CUL4A / Fold change vs veh, CUL4A / RFU, CCNY / Fold change vs veh, CCNY / RFU, UFL1 / Fold change vs veh, UFL1 / RFU, COG3 / Fold change vs veh, COG3 / RFU, DIAPH2 / Fold change vs veh, DIAPH2 / RFU, SKA2 / Fold change vs veh, SKA2 / RFU, AFF3 / Fold change vs veh, AFF3 / RFU, LMF1 / Fold change vs veh, LMF1 / RFU, IPO11 / Fold change vs veh, IPO11 / RFU, DFFB / Fold change vs veh, DFFB / RFU, FOXP1 / Fold change vs veh, FOXP1 / RFU, CARD8 / Fold change vs veh, CARD8 / RFU, STRN3 / Fold change vs veh, STRN3 / RFU, ADK / Fold change vs veh, ADK / RFU, RASSF2 / Fold change vs veh, RASSF2 / RFU, WIPF1 / Fold change vs veh, WIPF1 / RFU, LARP1B / Fold change vs veh, LARP1B / RFU, RASA1 / Fold change vs veh, RASA1 / RFU, RB1 / Fold change vs veh, RB1 / RFU, PPFIA1 / Fold change vs veh, PPFIA1 / RFU, MAT2A / Fold change vs veh, MAT2A / RFU, CCT5 / Fold change vs veh, CCT5 / RFU, WDR92 / Fold change vs veh, WDR92 / RFU, CUX1 / Fold change vs veh, CUX1 / RFU, TTC7A / Fold change vs veh, TTC7A / RFU, TMEM135 / Fold change vs veh, TMEM135 / RFU, DEPTOR / Fold change vs veh, DEPTOR / RFU, CPM / Fold change vs veh, CPM / RFU, DNAJB6 / Fold change vs veh, DNAJB6 / RFU, CACNA2D3 / Fold change vs veh, CACNA2D3 / RFU, DTX4 / Fold change vs veh, DTX4 / RFU, TFCP2 / Fold change vs veh, TFCP2 / RFU, GMCL1 /// GMCL1P1 / Fold change vs veh, GMCL1 /// GMCL1P1 / RFU, AEBP2 / Fold change vs veh, AEBP2 / RFU, SNHG1 /// SNORD22 /// SNORD25 /// SNORD26 /// SNORD27 /// SNORD28 /// SNORD29 /// SNORD31 / Fold change vs veh, SNHG1 /// SNORD22 /// SNORD25 /// SNORD26 /// SNORD27 /// SNORD28 /// SNORD29 /// SNORD31 / Fold change (Aza/veh), C12orf56 (ProbeSet 11735607_a_at) / Fold change (ACY-1035/veh), C12orf56 (ProbeSet 11735607_a_at) / Fold change (Aza/veh), FGFR1OP (ProbeSet 11751329_s_at) / Fold change (ACY-1035/veh), FGFR1OP (ProbeSet 11751329_s_at) / Fold change (Aza/veh), VPS36 (ProbeSet 11739960_a_at) / Fold change (ACY-1035/veh), VPS36 (ProbeSet 11739960_a_at) / RFU SYPL1 (11715823_x_at) / Fold change /veh SYPL1 (11715823_x_at) / RFU IGFBP7 (11715501_s_at) / Fold change /veh IGFBP7 (11715501_s_at) / RFU REEP3 (11722064_at) / Fold change /veh REEP3 (11722064_at) / RFU IGLL1 (11728026_x_at) / Fold change /veh IGLL1 (11728026_x_at): dose or concentration left out as unconfirmed. Conditions: ProbeSet 11731583_a_at; LIST D. The assay is classed as cell-based, human.

The structures appear in SMILES notation.

Consider `Nc1ncn([C@@H]2O[C@H](CO)[C@@H](O)[C@H]2O)c(=O)n1` [azacitidine], for which the “RFU, LARP1B” value worked out at 75.03 RFU.

The record behind these values is article PMC5218480 (PLoS ONE, 2017).
